Data from ChEMBL document CHEMBL4507319 (2021).

Assays:
Conditions in all cases: Compound concentration 1000.0 nM
[1] = biological target: High affinity nerve growth factor receptor (Homo sapiens) (UniProt P04629)
[2] = biological target: Mitogen-activated protein kinase kinase kinase 11 (Homo sapiens) (UniProt Q16584)
[3] = biological target: T1, Tyrosine-protein kinase JAK3 (Homo sapiens) (UniProt P52333)
T1 sequence (whole entry): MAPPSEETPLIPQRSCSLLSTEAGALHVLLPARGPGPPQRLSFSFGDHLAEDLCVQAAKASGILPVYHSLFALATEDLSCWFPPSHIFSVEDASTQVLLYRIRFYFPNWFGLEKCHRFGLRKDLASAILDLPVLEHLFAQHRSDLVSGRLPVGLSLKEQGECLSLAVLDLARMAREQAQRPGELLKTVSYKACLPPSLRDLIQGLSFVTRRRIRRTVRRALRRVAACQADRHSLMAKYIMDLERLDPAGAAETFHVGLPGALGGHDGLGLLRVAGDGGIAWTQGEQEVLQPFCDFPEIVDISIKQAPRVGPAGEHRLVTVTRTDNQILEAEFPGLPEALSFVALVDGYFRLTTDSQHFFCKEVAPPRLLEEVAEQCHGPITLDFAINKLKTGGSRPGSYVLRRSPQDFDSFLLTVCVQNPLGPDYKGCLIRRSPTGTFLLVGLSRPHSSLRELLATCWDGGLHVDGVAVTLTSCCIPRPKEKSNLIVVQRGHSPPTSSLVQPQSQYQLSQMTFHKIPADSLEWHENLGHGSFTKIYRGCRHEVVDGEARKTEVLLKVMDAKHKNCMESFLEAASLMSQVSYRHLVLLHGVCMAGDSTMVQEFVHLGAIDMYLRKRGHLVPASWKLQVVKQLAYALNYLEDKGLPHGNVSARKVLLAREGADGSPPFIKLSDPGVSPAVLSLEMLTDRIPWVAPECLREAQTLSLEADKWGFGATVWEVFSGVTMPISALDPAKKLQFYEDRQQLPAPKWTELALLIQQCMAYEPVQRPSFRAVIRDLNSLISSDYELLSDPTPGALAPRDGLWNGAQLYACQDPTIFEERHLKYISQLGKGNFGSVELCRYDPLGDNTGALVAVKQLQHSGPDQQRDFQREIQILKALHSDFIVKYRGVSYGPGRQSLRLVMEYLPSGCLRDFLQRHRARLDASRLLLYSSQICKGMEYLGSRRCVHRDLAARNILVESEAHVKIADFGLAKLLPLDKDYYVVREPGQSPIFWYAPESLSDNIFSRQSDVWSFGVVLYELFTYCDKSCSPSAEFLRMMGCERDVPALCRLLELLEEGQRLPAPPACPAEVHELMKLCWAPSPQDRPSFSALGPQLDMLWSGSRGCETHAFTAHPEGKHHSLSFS

[4] = biological target: Serine/threonine-protein kinase 36 (Homo sapiens) (UniProt Q9NRP7)
Sequence of Serine/threonine-protein kinase 36 (Homo sapiens) (Q9NRP7 whole entry): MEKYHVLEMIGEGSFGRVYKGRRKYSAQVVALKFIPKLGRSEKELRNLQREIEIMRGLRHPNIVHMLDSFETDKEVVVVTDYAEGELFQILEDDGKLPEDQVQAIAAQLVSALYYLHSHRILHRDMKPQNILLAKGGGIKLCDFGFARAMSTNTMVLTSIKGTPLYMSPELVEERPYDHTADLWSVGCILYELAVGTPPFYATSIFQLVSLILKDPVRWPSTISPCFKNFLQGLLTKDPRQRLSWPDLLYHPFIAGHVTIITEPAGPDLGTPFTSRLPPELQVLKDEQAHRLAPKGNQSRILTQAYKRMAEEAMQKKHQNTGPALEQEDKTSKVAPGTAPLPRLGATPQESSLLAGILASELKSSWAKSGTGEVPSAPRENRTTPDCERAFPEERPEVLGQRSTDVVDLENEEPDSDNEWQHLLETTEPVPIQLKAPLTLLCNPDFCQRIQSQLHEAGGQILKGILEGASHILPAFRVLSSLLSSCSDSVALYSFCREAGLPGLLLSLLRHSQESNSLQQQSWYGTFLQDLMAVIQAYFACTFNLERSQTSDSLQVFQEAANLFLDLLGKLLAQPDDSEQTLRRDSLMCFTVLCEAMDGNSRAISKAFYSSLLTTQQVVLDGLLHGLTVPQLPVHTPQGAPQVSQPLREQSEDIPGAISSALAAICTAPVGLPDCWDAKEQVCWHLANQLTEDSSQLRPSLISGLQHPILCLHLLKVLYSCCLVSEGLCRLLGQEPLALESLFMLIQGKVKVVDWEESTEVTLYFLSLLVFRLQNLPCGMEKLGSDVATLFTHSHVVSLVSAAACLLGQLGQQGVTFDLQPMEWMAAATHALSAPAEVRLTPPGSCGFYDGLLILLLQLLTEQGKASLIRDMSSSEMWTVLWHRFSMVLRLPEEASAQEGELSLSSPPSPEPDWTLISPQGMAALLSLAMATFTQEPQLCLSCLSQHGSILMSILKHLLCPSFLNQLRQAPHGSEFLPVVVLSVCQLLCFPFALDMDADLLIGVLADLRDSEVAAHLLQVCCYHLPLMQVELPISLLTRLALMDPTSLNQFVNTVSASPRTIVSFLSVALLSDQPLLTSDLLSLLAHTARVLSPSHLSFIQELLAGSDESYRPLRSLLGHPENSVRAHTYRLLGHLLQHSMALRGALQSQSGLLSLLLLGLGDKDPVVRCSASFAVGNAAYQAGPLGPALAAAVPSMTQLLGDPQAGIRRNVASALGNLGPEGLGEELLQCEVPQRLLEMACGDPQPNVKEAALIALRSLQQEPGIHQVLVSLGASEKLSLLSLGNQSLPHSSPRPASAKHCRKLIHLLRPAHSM

[5] = biological target: T2, MAP/microtubule affinity-regulating kinase 4 (Homo sapiens) (UniProt Q96L34)
T2 sequence (whole entry): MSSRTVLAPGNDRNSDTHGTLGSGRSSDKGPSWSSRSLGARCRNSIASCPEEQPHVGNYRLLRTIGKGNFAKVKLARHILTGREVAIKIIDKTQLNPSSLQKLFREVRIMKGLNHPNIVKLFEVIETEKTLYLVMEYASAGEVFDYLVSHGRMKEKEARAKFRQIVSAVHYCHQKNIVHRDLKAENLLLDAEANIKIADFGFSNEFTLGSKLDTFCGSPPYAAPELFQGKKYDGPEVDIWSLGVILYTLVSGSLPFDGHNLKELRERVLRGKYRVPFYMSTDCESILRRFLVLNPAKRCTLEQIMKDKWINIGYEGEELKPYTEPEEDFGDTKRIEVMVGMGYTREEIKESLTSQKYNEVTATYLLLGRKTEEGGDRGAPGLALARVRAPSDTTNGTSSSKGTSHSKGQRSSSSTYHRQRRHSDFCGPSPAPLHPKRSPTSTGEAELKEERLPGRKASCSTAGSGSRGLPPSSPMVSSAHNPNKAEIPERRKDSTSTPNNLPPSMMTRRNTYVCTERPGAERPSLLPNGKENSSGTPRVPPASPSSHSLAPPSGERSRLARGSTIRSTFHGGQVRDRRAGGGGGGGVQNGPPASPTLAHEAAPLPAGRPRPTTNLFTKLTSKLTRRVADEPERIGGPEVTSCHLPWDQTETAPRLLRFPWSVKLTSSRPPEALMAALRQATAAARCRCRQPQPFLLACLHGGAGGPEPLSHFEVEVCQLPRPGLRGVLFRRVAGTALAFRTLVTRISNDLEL

[6] = biological target: Protein kinase C delta type (Homo sapiens) (UniProt Q05655)
Sequence of Protein kinase C delta type (Homo sapiens) (Q05655 whole entry, looked up): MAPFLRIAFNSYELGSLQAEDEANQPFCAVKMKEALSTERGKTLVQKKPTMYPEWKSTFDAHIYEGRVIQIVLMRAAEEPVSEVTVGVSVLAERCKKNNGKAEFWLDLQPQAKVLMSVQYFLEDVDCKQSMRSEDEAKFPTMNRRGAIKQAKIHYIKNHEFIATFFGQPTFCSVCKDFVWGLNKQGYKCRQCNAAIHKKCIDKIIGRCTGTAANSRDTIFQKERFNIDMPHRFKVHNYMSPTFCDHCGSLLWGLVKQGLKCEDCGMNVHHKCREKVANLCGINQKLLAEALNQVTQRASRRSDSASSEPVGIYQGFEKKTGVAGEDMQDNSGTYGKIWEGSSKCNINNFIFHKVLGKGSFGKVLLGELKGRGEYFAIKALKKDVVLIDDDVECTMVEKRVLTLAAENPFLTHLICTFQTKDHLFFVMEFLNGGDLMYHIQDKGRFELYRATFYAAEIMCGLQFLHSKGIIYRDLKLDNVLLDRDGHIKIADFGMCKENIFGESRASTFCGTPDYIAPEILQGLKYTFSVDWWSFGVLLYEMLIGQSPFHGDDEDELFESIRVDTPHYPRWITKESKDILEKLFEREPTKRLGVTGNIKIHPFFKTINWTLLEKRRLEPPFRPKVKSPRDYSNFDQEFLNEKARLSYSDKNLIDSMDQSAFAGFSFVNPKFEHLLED

[7] = biological target: Cyclin-dependent kinase 5 (Homo sapiens) (UniProt Q00535)
Sequence of Cyclin-dependent kinase 5 (Homo sapiens) (Q00535 whole entry, looked up): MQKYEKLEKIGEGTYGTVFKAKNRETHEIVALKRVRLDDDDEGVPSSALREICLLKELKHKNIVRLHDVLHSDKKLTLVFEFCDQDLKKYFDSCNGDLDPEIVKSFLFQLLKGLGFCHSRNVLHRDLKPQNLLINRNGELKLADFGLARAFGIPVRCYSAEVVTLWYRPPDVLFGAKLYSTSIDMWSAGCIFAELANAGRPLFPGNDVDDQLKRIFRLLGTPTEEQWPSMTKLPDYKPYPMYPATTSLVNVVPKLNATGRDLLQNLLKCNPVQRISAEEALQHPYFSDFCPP

[8] = biological target: T3, Cytoplasmic tyrosine-protein kinase BMX (Homo sapiens) (UniProt P51813)
T3 sequence (whole entry): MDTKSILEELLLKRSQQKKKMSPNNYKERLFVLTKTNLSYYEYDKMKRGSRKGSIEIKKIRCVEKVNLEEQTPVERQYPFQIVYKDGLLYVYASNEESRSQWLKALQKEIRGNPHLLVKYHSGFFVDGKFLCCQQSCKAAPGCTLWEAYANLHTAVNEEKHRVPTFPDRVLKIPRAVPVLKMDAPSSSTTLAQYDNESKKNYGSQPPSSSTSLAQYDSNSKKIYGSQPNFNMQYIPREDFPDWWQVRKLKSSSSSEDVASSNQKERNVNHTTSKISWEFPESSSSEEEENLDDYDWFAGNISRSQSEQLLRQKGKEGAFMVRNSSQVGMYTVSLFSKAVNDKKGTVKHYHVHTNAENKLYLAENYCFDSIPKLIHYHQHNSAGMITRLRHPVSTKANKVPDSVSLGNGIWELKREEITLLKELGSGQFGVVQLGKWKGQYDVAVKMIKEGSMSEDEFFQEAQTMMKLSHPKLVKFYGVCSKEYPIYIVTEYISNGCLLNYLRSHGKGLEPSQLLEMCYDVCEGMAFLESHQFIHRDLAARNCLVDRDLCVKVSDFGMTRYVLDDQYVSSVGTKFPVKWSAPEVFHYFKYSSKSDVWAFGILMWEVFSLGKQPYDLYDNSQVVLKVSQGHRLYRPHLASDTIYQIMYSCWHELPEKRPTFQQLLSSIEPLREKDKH

[9] = biological target: Serine/threonine-protein kinase OSR1 (Homo sapiens) (UniProt O95747)
[10] = biological target: Activin receptor type-2B (Homo sapiens) (UniProt Q13705)
Sequence of Activin receptor type-2B (Homo sapiens) (Q13705 whole entry, canonical isoform): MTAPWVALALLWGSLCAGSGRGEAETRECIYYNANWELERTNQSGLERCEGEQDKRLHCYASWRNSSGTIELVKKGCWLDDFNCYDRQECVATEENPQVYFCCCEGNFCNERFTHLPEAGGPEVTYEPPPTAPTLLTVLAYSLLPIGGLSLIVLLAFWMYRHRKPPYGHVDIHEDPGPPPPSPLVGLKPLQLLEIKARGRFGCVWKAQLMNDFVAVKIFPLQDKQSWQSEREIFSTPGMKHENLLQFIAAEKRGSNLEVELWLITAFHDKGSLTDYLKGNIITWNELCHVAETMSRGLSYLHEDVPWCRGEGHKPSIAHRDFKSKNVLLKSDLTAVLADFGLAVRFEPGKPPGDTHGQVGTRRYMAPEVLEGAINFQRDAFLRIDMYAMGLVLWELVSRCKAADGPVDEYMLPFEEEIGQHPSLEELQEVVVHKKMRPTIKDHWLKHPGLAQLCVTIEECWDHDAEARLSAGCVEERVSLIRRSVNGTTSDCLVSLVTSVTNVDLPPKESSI

[11] = biological target: Casein kinase I isoform gamma-3 (Homo sapiens) (UniProt Q9Y6M4)
Sequence of Casein kinase I isoform gamma-3 (Homo sapiens) (Q9Y6M4 whole entry, looked up, canonical isoform): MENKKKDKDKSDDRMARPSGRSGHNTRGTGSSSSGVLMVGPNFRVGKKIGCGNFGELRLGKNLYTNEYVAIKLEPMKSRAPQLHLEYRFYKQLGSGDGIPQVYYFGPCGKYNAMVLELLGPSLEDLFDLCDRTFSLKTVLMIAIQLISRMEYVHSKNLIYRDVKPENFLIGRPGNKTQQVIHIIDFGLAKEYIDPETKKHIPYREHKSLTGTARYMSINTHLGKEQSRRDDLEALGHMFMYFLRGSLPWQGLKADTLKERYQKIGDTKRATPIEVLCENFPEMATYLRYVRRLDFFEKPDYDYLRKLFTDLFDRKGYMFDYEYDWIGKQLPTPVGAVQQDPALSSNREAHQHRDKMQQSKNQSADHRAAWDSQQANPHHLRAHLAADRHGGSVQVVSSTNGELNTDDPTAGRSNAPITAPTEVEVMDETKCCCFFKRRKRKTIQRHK

Measured: residual activity

Sequence of High affinity nerve growth factor receptor (Homo sapiens) (P04629 33-796 limits assumed): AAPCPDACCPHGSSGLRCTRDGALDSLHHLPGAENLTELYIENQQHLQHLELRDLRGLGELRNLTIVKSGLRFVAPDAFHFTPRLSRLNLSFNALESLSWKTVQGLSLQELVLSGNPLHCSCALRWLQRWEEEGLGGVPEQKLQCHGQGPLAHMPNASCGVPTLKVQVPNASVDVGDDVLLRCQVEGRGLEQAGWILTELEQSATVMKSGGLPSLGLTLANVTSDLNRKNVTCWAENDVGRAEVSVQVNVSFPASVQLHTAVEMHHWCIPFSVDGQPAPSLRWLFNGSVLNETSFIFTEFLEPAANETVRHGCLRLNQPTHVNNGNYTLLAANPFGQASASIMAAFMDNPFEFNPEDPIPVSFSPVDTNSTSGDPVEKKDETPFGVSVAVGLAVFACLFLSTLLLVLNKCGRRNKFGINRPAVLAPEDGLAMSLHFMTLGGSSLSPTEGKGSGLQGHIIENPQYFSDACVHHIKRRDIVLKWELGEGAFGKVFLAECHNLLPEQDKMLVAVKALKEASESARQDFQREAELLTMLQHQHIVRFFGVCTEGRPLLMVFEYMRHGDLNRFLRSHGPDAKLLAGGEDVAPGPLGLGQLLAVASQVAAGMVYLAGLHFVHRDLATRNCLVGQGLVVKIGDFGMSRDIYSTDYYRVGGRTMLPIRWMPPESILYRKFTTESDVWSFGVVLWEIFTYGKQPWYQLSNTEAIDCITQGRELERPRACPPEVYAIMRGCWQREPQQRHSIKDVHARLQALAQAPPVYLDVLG
Sequence of Mitogen-activated protein kinase kinase kinase 11 (Homo sapiens) (Q16584 whole entry, looked up): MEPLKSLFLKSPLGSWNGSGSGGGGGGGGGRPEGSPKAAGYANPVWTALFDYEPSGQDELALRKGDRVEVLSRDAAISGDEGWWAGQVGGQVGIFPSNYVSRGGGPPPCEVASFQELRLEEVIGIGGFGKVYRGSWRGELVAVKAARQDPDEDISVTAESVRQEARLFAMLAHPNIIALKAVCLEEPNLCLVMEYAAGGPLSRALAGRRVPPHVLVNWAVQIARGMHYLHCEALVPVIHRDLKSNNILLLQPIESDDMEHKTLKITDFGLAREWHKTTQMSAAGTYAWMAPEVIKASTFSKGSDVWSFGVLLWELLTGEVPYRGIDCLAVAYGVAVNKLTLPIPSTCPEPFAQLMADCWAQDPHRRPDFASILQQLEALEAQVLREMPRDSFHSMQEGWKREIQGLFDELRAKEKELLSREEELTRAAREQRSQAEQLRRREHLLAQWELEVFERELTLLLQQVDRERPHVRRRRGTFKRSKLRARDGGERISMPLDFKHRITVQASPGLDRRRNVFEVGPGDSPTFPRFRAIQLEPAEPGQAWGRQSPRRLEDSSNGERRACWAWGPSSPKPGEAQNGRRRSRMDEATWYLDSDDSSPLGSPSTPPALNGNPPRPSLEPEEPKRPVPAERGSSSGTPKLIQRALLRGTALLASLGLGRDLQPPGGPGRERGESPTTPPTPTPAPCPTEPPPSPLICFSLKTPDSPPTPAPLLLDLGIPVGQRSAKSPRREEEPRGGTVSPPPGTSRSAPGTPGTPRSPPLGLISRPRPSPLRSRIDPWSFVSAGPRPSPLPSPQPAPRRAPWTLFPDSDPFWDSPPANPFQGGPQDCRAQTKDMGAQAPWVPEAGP

CC1=C(C#N)C(c2ccc3c(c2)c(NC(=O)c2ccccc2C)nn3C)C(C#N)=C(C)N1 [BAY-974]
inactive: [1] 77% | [2] 96% | [3] 83% | [4] 87% | [5] 94% | [6] 100% | [7] 87% | [8] 85% | [9] 83% | [10] 100% | [11] 100%

CCc1ccccc1C(=O)Nc1n[nH]c2c(C)c(F)c(C3C(C#N)=C(C)N(C)C(C)=C3C#N)cc12 [BAY-3827]
inactive: [1] 97% | [2] 88% | [3] 79% | [4] 100% | [5] 51% | [6] 55% | [7] 89% | [8] 96% | [9] 100% | [10] 99% | [11] 100%
